Experimental data published in patent publication US12043827B2, “Compositions, systems, and methods for base diversification” (Pairwise Plants Services, Inc., priority 2020, dated 2024).

Assays:
Assay type in all cases: cell-based
[1] = system: FANCF genomic site; experiment: Adenine base editing with inosine glycosylases, FANCF site (FIGS. 8A-8C); conditions: all conditions that used ABE
From the text: (§1) FIGS. 8A-8C are graphs showing adenine base editing results for a FANCF genomic site. Adenines in the target window were diversified into cytosine and thymine. All conditions that used ABE generated ˜10-20% guanine mutation, as expected. FIG. 8A is a graph providing the results for inosine glycosylase for fusion constructs. FIG. 8B is a graph providing the results for inosine glycosylases provided in trans and overexpressed in the cell. […] is a graph showing the amount of indels generated by the constructs.
(§2) Five different glycosylases from various species were selected for testing. The following genes were codon-optimized and cloned into a mammalian expression vector, either as unfused gene, or as a C-terminal fusion to ABE7.10 (species source in parenthesis); hMPG (Homo sapiens) having an amino acid sequence of SEQ ID NO:84, mMPG (Mus musculus) having an amino acid sequence of SEQ ID NO:83, rMPG (Rattus norvegicus) having an amino acid sequence of SEQ ID NO:80, SpThp1 (Schizosaccharomyces pombe) having an amino acid sequence of SEQ ID NO:79, MaHDG (Methanosarcina acetivorans) having an amino acid sequence of SEQ ID NO:81, and MbHDG (Methanosarcina barkeri) having an amino acid sequence of SEQ ID NO:82. […]

[2] = system: endogenous loci; experiment: Transversion mutations from adenine: ABE7.10 with inosine glycosylases (fusion or in trans), HTS in HEK293T cells; conditions: all conditions that used ABE7.10, 3 days
From the text: The experiment was designed to generate transversion mutations from adenines by promoting inosines to undergo the same cellular DNA repair pathways that generate transversion mutations during translesion-bypass polymerization in cytosine base editing. While not wishing to be bound to any particular theory, it was hypothesized that the key step was to facilitate the glycosylation of inosines generated during adenine base editing. It was hypothesized that once glycosylated, the resulting abasic site can be a substrate for translesion-bypass repair and that this would lead to transversion mutations. Exogenous inosine glycosylases were provided along with ABE to promote inosine glycosylation.
Several inosine glycosylases were screened in HEK293T cells and it was determined whether they were capable of acting on inosines generated by ABE. If inosine is converted into an abasic site, and subsequently repaired through translesion-bypass polymerization, transversion mutations can be generated from adenines.
Five different glycosylases from various species were selected for testing. The following genes were codon-optimized and cloned into a mammalian expression vector, either as unfused gene, or as a C-terminal fusion to ABE7.10 (species source in parenthesis); hMPG (Homo sapiens) having an amino acid sequence of SEQ ID NO:84, mMPG (Mus musculus) having an amino acid sequence of SEQ ID NO:83, rMPG (Rattus norvegicus) having an amino acid sequence of SEQ ID NO:80, SpThp1 (Schizosaccharomyces pombe) having an amino acid sequence of SEQ ID NO:79, MaHDG (Methanosarcina acetivorans) having an amino acid sequence of SEQ ID NO:81, and MbHDG (Methanosarcina barkeri) having an amino acid sequence of SEQ ID NO:82. […] The HEK293T cells were transfected with a plasmid encoding gRNA targeting endogenous loci and either the fusion plasmid or a mixture of plasmids expressing ABE7.10 and the above inosine glycosylases. After 3 days, high-throughput sequencing was used to determine the editing result of targeted adenines. Mock transfection (using pUC19) was used to set baseline editing. All conditions that used ABE7.10 generated 10-20% guanine transition, as expected.

[3] = system: HEK2 genomic site; experiment: Adenine base editing with inosine glycosylases, HEK2 site (FIGS. 7A-7C); conditions: all conditions that used ABE
From the text: as §1, with “7A-7C” for “8A-8C”, “HEK2” for “FANCF”, “7A” for “8A”, “glycosylase” for “glycosylase for”, “7B” for “8B”
as §2

[4] = system: spacer sequence corresponding to SEQ ID NO:131; experiment: SunTag recruitment system for adenine base diversifier / reduced Cas9 binding affinity, HTS in HEK293T cells; conditions: scFv-TadA8.20m-GB1 or scFv-TadA8e-GB1, glycosylase overexpressed in trans, FIGS. 10 and 11
From the text: Different forms of Cas9 were expressed in HEK293T cells, which were: nCas9(D10A) (SEQ ID NO:36), dCas9-SunTag (SEQ ID NO:135), nCas9(D10A)-SunTag (SEQ ID NO:136), and enCas9(D10A)-SunTag (SEQ ID NO:137), along with a SunTag-antibody-fused adenine deaminase, with a GB1 solubility tag at the C-terminus, having a sequence of SEQ ID NO:138 or SEQ ID NO:139. An inosine glycosylase, which was hMPG (SEQ ID NO:84), mMPG (SEQ ID NO:83), or SpThp1 (SEQ ID NO:79) was overexpressed in trans. The glycosylase was not actively recruited, but was expressed in the cell at the same time as the Cas9 and deaminase.
In an attempt to reduce the Cas9 DNA binding affinity to a target nucleic acid, Cas9 having mutated amino acid residues that may interact with the target nucleic acid were used. Without being limited to any particular theory, the thought was that this would facilitate the dissociation of Cas9 from the target nucleic acid once adenine is converted to inosine; thus, providing greater access for inosine glycosylase. Specifically, enCas9(D10A) (SEQ ID NO:39) contains two mutations that reduce DNA binding affinity compared to nCas9(D10A) (Halperin et al. Nature 2018 560(7717):248-252). The effect of the mutations in the context of SunTag-mediated adenine diversification were tested. […]
After three days, the editing efficiency was measured by high throughput sequencing of targeted loci. […]

[5] = system: Sites 1-4 (SEQ ID NO:131-134); experiment: Truncation of inosine glycosylase regulatory domain, hMPG vs thMPG fusions to ABE8.20m; conditions: N- and C-terminus fusions to ABE8.20m, four sites, FIG. 12
From the text: Methylpurine glycosylase (MPG) usually contains two domains. The catalytic domain of MPG is necessary for excising inosine from DNA (Hollis, Lau, Ellenberger. Mutation Research 2000, 460, 201-210). Without being bound to any particular theory, in an effort to reduce the size of MPG, potentially allow for better inosine access to the catalytic domain, and potentially improve the solubility of the fusion complex, the N-terminus of MPG was truncated.
In this experiment, both N-terminus and C-terminus fusions of hMPG to ABE8.20m (SEQ ID NO:57) were tested with a truncated variant of hMPG (thMPG) (SEQ ID NO:85). Four different target nucleic acids were tested, which were: Site 1: […] (SEQ ID NO:131), Site 2: […] (SEQ ID NO:132), Site 3: […] (SEQ ID NO:133), and Site 4: […] (SEQ ID NO:134).

ABE7.10: adenine base editor, unfused ABE7.10 having amino acid sequence of SEQ ID NO:55
guanine mutation [1]: 10-20%
guanine transition of targeted adenines [2]: 10-20%
guanine mutation [3]: 10-20%

nCas9(D10A)-SunTag: Cas9 nickase (D10A) fused to SunTag, SEQ ID NO:136
A to C or T editing [4]: increase in A to C or T editing compared to expression of nCas9(D10A) without SunTag

B1: thMPG: truncated variant of hMPG, SEQ ID NO:85, fused to ABE8.20m (protein, listed as Homo sapiens)
chain: KGHLTRLGLEFFDQPAVPLARAFLGQVLVRRLPNGTELRGRIVETEAYLGPEDEAAHSRGGRQTPRNRGMFMKPGTLYVYIIYGMYFCMNISSQGDGACVLLRALEPLEGLETMRQLRSTLRKGTASRVLKDRELCSGPSKLCQALAINKSFDQRDLAQDEAVWLERGPLEPSEPAVVAAARVGVGHAGEWARKPLRFYVRGSPWVSVVDRVAEQDTQA
adenine conversion to C or T activity, truncated vs full-length MPG [5]: no observed decrease in activity and, in some cases, there was an observed increase in adenine conversion to C or T
